target: T1, B1R receptor of the rat (rB1R) (Rattus norvegicus, UniProt P97583); assay: Functional FLIPR Ca2+ assay on the bradykinin 1 receptor, rat (rB1R CHO K1 cells); assay type: cell-based; settings: test substance 10 μM; CHO K1 cells transfected with rat B1R gene; agonist Des-Arg9-bradykinin at EC80; % inhibition compared with maximum achievable inhibition; read-out: B1R antagonism, rat [10 μM] % inhibition
T1 construct: expressed in transfected cells; host or cells: CHO K1 cells (Chinese hamster ovary), stably transfected
T1 sequence (P97583 1-337): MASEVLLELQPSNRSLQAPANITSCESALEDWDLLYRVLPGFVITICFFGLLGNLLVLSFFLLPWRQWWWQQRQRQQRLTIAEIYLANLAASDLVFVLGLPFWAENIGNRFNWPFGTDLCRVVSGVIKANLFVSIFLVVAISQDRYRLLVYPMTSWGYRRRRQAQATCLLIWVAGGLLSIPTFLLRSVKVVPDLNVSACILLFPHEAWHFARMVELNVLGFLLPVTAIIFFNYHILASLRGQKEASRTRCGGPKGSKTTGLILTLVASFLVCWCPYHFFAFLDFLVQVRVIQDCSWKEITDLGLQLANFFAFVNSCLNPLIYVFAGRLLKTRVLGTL
Description: The agonistic or antagonistic action of substances can be quantified on the bradykinin 1 receptor (B1R) of the human and rat species with ectopically expressing cell lines (CHO K1 cells) and with the aid of a Ca^2+-sensitive dyestuff (Fluo-4) in a fluorescent imaging plate reader (FLIPR). The figure in % activation is based on the Ca^2+ signal after addition of Lys-Des-Arg^9-bradykinin (0.5 nM) or Des-Arg^9-bradykinin (100 nM). Antagonists lead to a suppression of the Ca^2+ inflow after addition of the agonist. % inhibition compared with the maximum achievable inhibition is stated.
The agonistic or antagonistic action of substances can be determined on the bradykinin 1 receptor (B1R) of the human and rat species with the following assay. In accordance with this assay, the Ca^2+ inflow through the channel is quantified with the aid of a Ca^2+-sensitive dyestuff (type Fluo-4, Molecular Probes Europe BV, Leiden, Holland) in a fluorescent imaging plate reader (FLIPR, Molecular Devices, Sunnyvale, USA).
Chinese hamster ovary cells (CHO K1 cells) transfected stably with the human B1R gene (hB1R cells) or the B1R gene of the rat (rB1R cells) are used. For functional studies, these cells are plated out on black 96-well plates with a clear base (BD Biosciences, Heidelberg, Germany or Greiner, Frickenhausen, Germany) in a density of 20,000-35,000 cells/well. The cells are left overnight at 37° C. and 5% CO2 in culture medium (hB1R cells: Nutrient Mixture Ham's F12, Gibco Invitrogen GmbH, Karlsruhe, Germany or DMEM, Sigma-Aldrich, Taufkirchen, Germany; rB1R cells: D-MEM/F12, Gibco Invitrogen GmbH, Karlsruhe, Germany) with 10 vol. % FBS (foetal bovine serum, Gibco Invitrogen GmbH, Karlsruhe, Germany or PAN Biotech GmbH, Aidenbach, Germany). On the following day, the cells are loaded for 60 min at 37° C. with 2.13 μM Fluo-4 (Molecular Probes Europe BV, Leiden, Holland) in HBSS buffer (Hank's buffered saline solution, Gibco Invitrogen GmbH, Karlsruhe, Germany) with 2.5 mM probenecid (Sigma-Aldrich, Taufkirchen, Germany) and 10 mM HEPES (Sigma-Aldrich, Taufkirchen, Germany). The plates are then washed 2× with HBSS buffer, and HBSS buffer which additionally contains 0.1% BSA (bovine serum albumin; Sigma-Aldrich, Taufkirchen, Germany), 5.6 mM glucose and 0.05% gelatine (Merck KgaA, Darmstadt, Germany) is added. After a further incubation of 20 minutes at room temperature, the plates are inserted into the FLIPR for the Ca^2+ measurement.
Alternatively, the plates are washed with buffer A (15 mM HEPES, 80 mM NaCl, 5 mM KCl, 1.2 mM CaCl2, 0.7 mM MgSO4, 2 g/l glucose, 2.5 mM probenecid), buffer A is added and the plates are loaded with 2.5 μM Fluo-4 and 0.025% Pluronic F127 (Sigma-Aldrich, Taufkirchen, Germany). Thereafter, the cells are washed 2× with buffer A and incubated for 30 minutes with buffer A, which additionally contains 0.05% BSA and 0.05% gelatine, at room temperature and thereafter inserted into the FLIPR for the Ca^2+ measurement. The Ca^2+-dependent fluorescence is measured here before and after addition of substances (λex=488 nm, λem=540 nm). Quantification is by measurement of the highest fluorescence intensity (FC, fluorescence counts) over time.
The FLIPR protocol consists of 2 additions of substance. Test substances (10 μM) are first pipetted on to the cells and the Ca^2+ inflow is compared with the control (hB1R: Lys-Des-Arg^9-bradykinin >=50 nM; rB1R: Des-Arg^9-bradykinin 10 μM). This gives the figure in % activation based on the Ca^2+ signal after addition of Lys-Des-Arg^9-bradykinin (>=50 nM) or Des-Arg^9-bradykinin (10 μM). After incubation for 10-20 minutes, Lys-Des-Arg^9-bradykinin (hB1R) or Des-Arg^9-bradykinin (rB1R) in the concentration of the EC80 is applied and the inflow of Ca^2+ is likewise determined. Antagonists lead to a suppression of the Ca^2+ inflow. % inhibition compared with the maximum achievable inhibition is calculated. In order to determine the IC50 value, the substances are added in various concentrations. […]

Row | inhibition at 10 µM [%] | Compound
1 | 100 | COc1cc(C)c(S(=O)(=O)N(CCOCC(=O)N2CCc3[nH]cnc3C2c2ccccc2)Cc2ccccc2)c(C)c1 (stereo not shown) [Example 82, N-Benzyl-4-Methoxy-2,6-dimethyl-N-[2-[2-oxo-2-(4-phenyl-4,5,6,7-tetrahydro-1H-imidazo[4,5-c]pyridin-5-yl)-ethoxy]-ethyl]-benzenesulfonic acid amide]
2 | 101 | COc1cc(C)c(S(=O)(=O)N2CCCCC2COCCC(=O)N2CCc3[nH]cnc3C2c2ccccc2)c(C)c1 (stereo not shown) [Example 100, 3-[[1-[(4-Methoxy-2,6-dimethyl-phenyl)sulfonyl]-piperidin-2-yl]-methoxy]-1-(4-phenyl-4,5,6,7-tetrahydro-1H-imidazo[4,5-c]pyridin-5-yl)-propan-1-one]
3 | 97 | COc1cc(C)c(S(=O)(=O)N(C)CCOCC(=O)N2CCc3[nH]cnc3C2c2ccccc2)c(C)c1 (stereo not shown) [Example 66, 4-Methoxy-N,2,6-trimethyl-N-[2-[2-oxo-2-(4-phenyl-4,5,6,7-tetrahydro-1H-imidazo[4,5-c]pyridin-5-yl)-ethoxy]-ethyl]-benzenesulfonic acid amide]
4 | 94 | COc1cc(C)c(S(=O)(=O)N2c3ccccc3OCC2COCC(=O)N2CCc3[nH]cnc3C2c2ccccc2)c(C)c1 (stereo not shown) [Example 92, 2-[[4-[(4-Methoxy-2,6-dimethyl-phenyl)sulfonyl]-3,4-dihydro-2H-[1,4]benzoxazin-3-yl]-methoxy]-1-(4-phenyl-4,5,6,7-tetrahydro-1H-imidazo[4,5-c]pyridin-5-yl)-ethanone]
5 | 102 | COc1cc(C)c(S(=O)(=O)N(CCOCC(=O)N2CCc3sc(CN4CCN(C)CC4)cc3C2)Cc2ccccc2)c(C)c1 [Example 81, N-Benzyl-4-Methoxy-2,6-dimethyl-N-[2-[2-[2-[(4-methyl-piperazin-1-yl)-methyl]-4,5,6,7-tetrahydro-thieno[3,2-c]pyridin-5-yl]-2-oxo-ethoxy]-ethyl]-benzenesulfonic acid amide]
6 | 96 | COc1cc(C)c(S(=O)(=O)N2c3ccccc3CCC2COCC(=O)N2CCc3[nH]cnc3C2c2ccccc2)c(C)c1 (stereo not shown) [Example 86, 2-[[1-[(4-Methoxy-2,6-dimethyl-phenyl)sulfonyl]-1,2,3,4-tetrahydro-quinolin-2-yl]-methoxy]-1-(4-phenyl-4,5,6,7-tetrahydro-1H-imidazo[4,5-c]pyridin-5-yl)-ethanone]

Further lines, the compound ahead of its results:

Row | Compound | inhibition at 10 µM [%]
7 | CN1CCN(Cc2cc3c(s2)CCN(C(=O)CCCC2CCCCN2S(=O)(=O)c2ccc4ccccc4c2)C3)CC1 (stereo not shown) [Example 75, 1-[2-[(4-Methyl-piperazin-1-yl)-methyl]-4,5,6,7-tetrahydro-thieno[3,2-c]pyridin-5-yl]-4-[1-(naphthalen-2-ylsulfonyl)-piperidin-2-yl]-butan-1-one] | 103
8 | COc1cc(C)c(S(=O)(=O)N(CCOCC(=O)N2CCc3sc(CN4CCN(C)CC4)cc3C2)Cc2ccc3c(c2)OCOC3)c(C)c1 [Example 78, N-(4H-[1,3]Benzodioxin-7-yl-methyl)-4-methoxy-2,6-dimethyl-N-[2-[2-[2-[(4-methyl-piperazin-1-yl)-methyl]-4,5,6,7-tetrahydro-thieno[3,2-c]pyridin-5-yl]-2-oxo-ethoxy]-ethyl]-benzenesulfonic acid amide] | 98
9 | CN1CCN(Cc2cc3c(s2)CCN(C(=O)CCCC2CCCCN2S(=O)(=O)c2cccc4ccccc24)C3)CC1 (stereo not shown) [Example 73, 1-[2-[(4-Methyl-piperazin-1-yl)-methyl]-4,5,6,7-tetrahydro-thieno[3,2-c]pyridin-5-yl]-4-[1-(naphthalen-1-ylsulfonyl)-piperidin-2-yl]-butan-1-one] | 99
10 | COc1cc(C)c(S(=O)(=O)N(C)CCOCC(=O)N2CCc3sc(CN4CCN(C)CC4)cc3C2)c(C)c1C [Example 95, 4-Methoxy-N,2,3,6-tetramethyl-N-[2-[2-[2-[(4-methyl-piperazin-1-yl)-methyl]-4,5,6,7-tetrahydro-thieno[3,2-c]pyridin-5-yl]-2-oxo-ethoxy]-ethyl]-benzenesulfonic acid amide] | 99
11 | O=C(CCCC1CCCCN1S(=O)(=O)c1ccccc1C(F)(F)F)N1CCc2[nH]cnc2C1c1ccccc1 (stereo not shown) [Example 88, 1-(4-Phenyl-4,5,6,7-tetrahydro-1H-imidazo[4,5-c]pyridin-5-yl)-4-[1-[[2-(trifluoromethyl)-phenyl]sulfonyl]-piperidin-2-yl]-butan-1-one] | 65
12 | COc1cc(C)c(S(=O)(=O)N(CCOCC(=O)N2CCc3sc(CN4CCN(C)CC4)cc3C2)c2ccccc2)c(C)c1 [Example 83, 4-Methoxy-2,6-Dimethyl-N-[2-[2-[2-[(4-methyl-piperazin-1-yl)-methyl]-4,5,6,7-tetrahydro-thieno[3,2-c]pyridin-5-yl]-2-oxo-ethoxy]-ethyl]-N-phenyl-benzenesulfonic acid amide] | 101
13 | COc1cc(C)c(S(=O)(=O)N2c3ccccc3OCC2COCC(=O)N2CCc3sc(CN4CCN(C)CC4)cc3C2)c(C)c1 (stereo not shown) [Example 91, 2-[[4-[(4-Methoxy-2,6-dimethyl-phenyl)sulfonyl]-3,4-dihydro-2H-[1,4]benzoxazin-3-yl]-methoxy]-1-[2-[(4-methyl-piperazin-1-yl)-methyl]-4,5,6,7-tetrahydro-thieno[3,2-c]pyridin-5-yl]-ethanone] | 103
14 | COc1cc(C)c(S(=O)(=O)N2c3ccccc3CCC2COCC(=O)N2CCc3sc(CN4CCN(C)CC4)cc3C2)c(C)c1 (stereo not shown) [Example 85, 2-[[1-[(4-Methoxy-2,6-dimethyl-phenyl)sulfonyl]-1,2,3,4-tetrahydro-quinolin-2-yl]-methoxy]-1-[2-[(4-methyl-piperazin-1-yl)-methyl]-4,5,6,7-tetrahydro-thieno[3,2-c]pyridin-5-yl]-ethanone] | 102
15 | O=C(CCCC1CCCCN1S(=O)(=O)c1cccc2ccccc12)N1CCc2[nH]cnc2C1c1ccccc1 (stereo not shown) [Example 74, 4-[1-(Naphthalen-1-ylsulfonyl)-piperidin-2-yl]-1-(4-phenyl-4,5,6,7-tetrahydro-1H-imidazo[4,5-c]pyridin-5-yl)-butan-1-one] | 95
16 | O=C(COCC1COc2ccccc2N1S(=O)(=O)c1ccccc1C(F)(F)F)N1CCc2[nH]cnc2C1c1ccccc1 (stereo not shown) [Example 94, 1-(4-Phenyl-4,5,6,7-tetrahydro-1H-imidazo[4,5-c]pyridin-5-yl)-2-[[4-[[2-(trifluoromethyl)-phenyl]sulfonyl]-3,4-dihydro-2H-[1,4]benzoxazin-3-yl]-methoxy]-ethanone] | 36
